Experimental data from US8192962B2, “Processes for detecting toxic substances” (Daikin Industries, Ltd., priority 2001, dated 2012).

Test system: Unknown protein yeast genes
Experiment: DNA chip mRNA expression in yeast, unknown protein yeast genes (Table 1)
Type: cell-based, Saccharomyces cerevisiae S288C
In short: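 Value is the scanned fluorescence intensity ratio of exposed versus chemical-free cells. Log-phase S288C yeast in YPD at 25° C. received one toxic substance for two hours, dosed to slow growth without killing; Cy3/Cy5-labeled cDNA from oligo-dT-purified mRNA was hybridized to a whole-genome chip at 65° C.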

CN(C)C(=S)SSC(=S)N(C)C [(10), Tetramethylthiuram disulfide]
The level of expressed mRNA in the presence of chemical substance/The level of expressed mRNA in the absence of chemical substance (yeast gene YKL086W, incubated two hours with chemical substance): 20.5
The level of expressed mRNA in the presence of chemical substance/The level of expressed mRNA in the absence of chemical substance (yeast gene YKL151C, incubated two hours with chemical substance): 3.5
The level of expressed mRNA in the presence of chemical substance/The level of expressed mRNA in the absence of chemical substance (yeast gene YKL153W, incubated two hours with chemical substance): 1.4
The level of expressed mRNA in the presence of chemical substance/The level of expressed mRNA in the absence of chemical substance (yeast gene YKL195W, incubated two hours with chemical substance): 2.1
The level of expressed mRNA in the presence of chemical substance/The level of expressed mRNA in the absence of chemical substance (yeast gene YKR011C): 4.4
The level of expressed mRNA in the presence of chemical substance/The level of expressed mRNA in the absence of chemical substance (yeast gene YKR091W, incubated two hours with chemical substance): 1.6
The level of expressed mRNA in the presence of chemical substance/The level of expressed mRNA in the absence of chemical substance (yeast gene YLR054C, incubated two hours with chemical substance): 1.1
The level of expressed mRNA in the presence of chemical substance/The level of expressed mRNA in the absence of chemical substance (yeast gene YLR149C, incubated two hours with chemical substance): 5.2
The level of expressed mRNA in the presence of chemical substance/The level of expressed mRNA in the absence of chemical substance (yeast gene YLR152C, incubated two hours with chemical substance): 1.1
The level of expressed mRNA in the presence of chemical substance/The level of expressed mRNA in the absence of chemical substance (yeast gene YLR194C, incubated two hours with chemical substance): 1.1
The level of expressed mRNA in the presence of chemical substance/The level of expressed mRNA in the absence of chemical substance (yeast gene YLR324W, incubated two hours with chemical substance): 1.4
The level of expressed mRNA in the presence of chemical substance/The level of expressed mRNA in the absence of chemical substance (yeast gene YLR350W, incubated two hours with chemical substance): 1.4
The level of expressed mRNA in the presence of chemical substance/The level of expressed mRNA in the absence of chemical substance (yeast gene YLR387C, incubated two hours with chemical substance): 3.0
The level of expressed mRNA in the presence of chemical substance/The level of expressed mRNA in the absence of chemical substance (yeast gene YLR460C): 31.6
The level of expressed mRNA in the presence of chemical substance/The level of expressed mRNA in the absence of chemical substance (yeast gene YML117W, incubated two hours with chemical substance): 1.4
The level of expressed mRNA in the presence of chemical substance/The level of expressed mRNA in the absence of chemical substance (yeast gene YMR009W, incubated two hours with chemical substance): 2.2
The level of expressed mRNA in the presence of chemical substance/The level of expressed mRNA in the absence of chemical substance (yeast gene YMR067C, incubated two hours with chemical substance): 3.5
The level of expressed mRNA in the presence of chemical substance/The level of expressed mRNA in the absence of chemical substance (yeast gene YMR090W): 6.1
The level of expressed mRNA in the presence of chemical substance/The level of expressed mRNA in the absence of chemical substance (yeast gene YMR095C, incubated two hours with chemical substance): 1.4
The level of expressed mRNA in the presence of chemical substance/The level of expressed mRNA in the absence of chemical substance (yeast gene YMR097C, incubated two hours with chemical substance): 2.1
The level of expressed mRNA in the presence of chemical substance/The level of expressed mRNA in the absence of chemical substance (yeast gene YMR102C, incubated two hours with chemical substance): 2.6
The level of expressed mRNA in the presence of chemical substance/The level of expressed mRNA in the absence of chemical substance (yeast gene YMR107W, incubated two hours with chemical substance): 17.1
The level of expressed mRNA in the presence of chemical substance/The level of expressed mRNA in the absence of chemical substance (yeast gene YMR180C, incubated two hours with chemical substance): 2.2
The level of expressed mRNA in the presence of chemical substance/The level of expressed mRNA in the absence of chemical substance (yeast gene YMR184W, incubated two hours with chemical substance): 0.9
The level of expressed mRNA in the presence of chemical substance/The level of expressed mRNA in the absence of chemical substance (yeast gene YMR191W, incubated two hours with chemical substance): 3.5
The level of expressed mRNA in the presence of chemical substance/The level of expressed mRNA in the absence of chemical substance (yeast gene YMR295C, incubated two hours with chemical substance): 0.8
The level of expressed mRNA in the presence of chemical substance/The level of expressed mRNA in the absence of chemical substance (yeast gene YMR316W, incubated two hours with chemical substance): 3.0
The level of expressed mRNA in the presence of chemical substance/The level of expressed mRNA in the absence of chemical substance (yeast gene YNL044W, incubated two hours with chemical substance): 0.8
The level of expressed mRNA in the presence of chemical substance/The level of expressed mRNA in the absence of chemical substance (yeast gene YNL074C, incubated two hours with chemical substance): 2.0
The level of expressed mRNA in the presence of chemical substance/The level of expressed mRNA in the absence of chemical substance (yeast gene YNL092W, incubated two hours with chemical substance): 1.5
The level of expressed mRNA in the presence of chemical substance/The level of expressed mRNA in the absence of chemical substance (yeast gene YNL115C, incubated two hours with chemical substance): 1.9
The level of expressed mRNA in the presence of chemical substance/The level of expressed mRNA in the absence of chemical substance (yeast gene YNL156C, incubated two hours with chemical substance): 1.9
The level of expressed mRNA in the presence of chemical substance/The level of expressed mRNA in the absence of chemical substance (yeast gene YNL234W, incubated two hours with chemical substance): 3.3
The level of expressed mRNA in the presence of chemical substance/The level of expressed mRNA in the absence of chemical substance (yeast gene YNL281W, incubated two hours with chemical substance): 1.6
The level of expressed mRNA in the presence of chemical substance/The level of expressed mRNA in the absence of chemical substance (yeast gene YNL305C, incubated two hours with chemical substance): 2.1
The level of expressed mRNA in the presence of chemical substance/The level of expressed mRNA in the absence of chemical substance (yeast gene YNR068C, incubated two hours with chemical substance): 14.4
The level of expressed mRNA in the presence of chemical substance/The level of expressed mRNA in the absence of chemical substance (yeast gene YOL032W, incubated two hours with chemical substance): 3.0
The level of expressed mRNA in the presence of chemical substance/The level of expressed mRNA in the absence of chemical substance (yeast gene YOL036W, incubated two hours with chemical substance): 2.8
The level of expressed mRNA in the presence of chemical substance/The level of expressed mRNA in the absence of chemical substance (yeast gene YOL047C, incubated two hours with chemical substance): 2.3
The level of expressed mRNA in the presence of chemical substance/The level of expressed mRNA in the absence of chemical substance (yeast gene YOL071W, incubated two hours with chemical substance): 2.3
The level of expressed mRNA in the presence of chemical substance/The level of expressed mRNA in the absence of chemical substance (yeast gene YOL082W, incubated two hours with chemical substance): 2.0
The level of expressed mRNA in the presence of chemical substance/The level of expressed mRNA in the absence of chemical substance (yeast gene YOL083W, incubated two hours with chemical substance): 2.3
The level of expressed mRNA in the presence of chemical substance/The level of expressed mRNA in the absence of chemical substance (yeast gene YOL117W, incubated two hours with chemical substance): 4.1
The level of expressed mRNA in the presence of chemical substance/The level of expressed mRNA in the absence of chemical substance (yeast gene YOL131W, incubated two hours with chemical substance): 8.1
The level of expressed mRNA in the presence of chemical substance/The level of expressed mRNA in the absence of chemical substance (yeast gene YOL150C): 8.3
The level of expressed mRNA in the presence of chemical substance/The level of expressed mRNA in the absence of chemical substance (yeast gene YOL162W, incubated two hours with chemical substance): 6.8
The level of expressed mRNA in the presence of chemical substance/The level of expressed mRNA in the absence of chemical substance (yeast gene YOR019W, incubated two hours with chemical substance): 7.1
The level of expressed mRNA in the presence of chemical substance/The level of expressed mRNA in the absence of chemical substance (yeast gene YOR197W, incubated two hours with chemical substance): 0.7
The level of expressed mRNA in the presence of chemical substance/The level of expressed mRNA in the absence of chemical substance (yeast gene YOR338W): 3.5
The level of expressed mRNA in the presence of chemical substance/The level of expressed mRNA in the absence of chemical substance (yeast gene YPL087W, incubated two hours with chemical substance): 2.2
The level of expressed mRNA in the presence of chemical substance/The level of expressed mRNA in the absence of chemical substance (yeast gene YPL196W, incubated two hours with chemical substance): 2.8
The level of expressed mRNA in the presence of chemical substance/The level of expressed mRNA in the absence of chemical substance (yeast gene YPL206C, incubated two hours with chemical substance): 1.1
The level of expressed mRNA in the presence of chemical substance/The level of expressed mRNA in the absence of chemical substance (yeast gene YPL222W, incubated two hours with chemical substance): 3.4
The level of expressed mRNA in the presence of chemical substance/The level of expressed mRNA in the absence of chemical substance (yeast gene YPR023C, incubated two hours with chemical substance): 2.8
The level of expressed mRNA in the presence of chemical substance/The level of expressed mRNA in the absence of chemical substance (yeast gene YPR151C, incubated two hours with chemical substance): 9.5
